How the values were obtained:
[1] = system: recombinant human anti-SARS-CoV antibody 03-018; type: binding; design: Binding of antibody 03-018 to linear peptides of the N protein of SARS-CoV Urbani / Binding of antibody 03-018 to looped/cyclic peptides of the N protein of SARS-CoV Urbani: unit not given here
[2] = system: control sera (pooled serum of ten healthy LUMC hospital workers; commercial negative donor pooled serum from the Dutch bloodbank); type: binding, human; design: Binding of Control serum LUMC to linear peptides / Binding of Control serum Blood-bank to linear peptides / Binding of Control serum LUMC to looped peptides / Binding of Control Serum Blood-Bank to Looped peptides / Binding of Control serum LUMC to linear peptides of the protein M of SARS-CoV Urbani / Binding of Control serum Blood-bank to linear peptides of the protein M of SARS-CoV Urbani / Binding of Control serum LUMC to looped peptides of the protein M of SARS-CoV Urbani / Binding of Control Serum Blood-Bank to Looped peptides of the protein M of SARS-CoV Urbani: unit not given here
[3] = system: rabbit serum obtained by immunizing a rabbit with the SARS-CoV strain Frankfurt 1; type: binding; design: Binding of a rabbit serum to linear peptides / Binding of a rabbit serum to looped peptides / Rabbit serum linear peptides / Rabbit serum looped peptides / Binding of a rabbit serum to linear peptides of protein N of SARS-CoV Urbani (Rabbit serum linear peptides) / Binding of a rabbit serum to looped/cyclic peptides of protein N of SARS-CoV Urbani (Rabbit serum looped peptides): unit not given here
[4] = system: antibodies in sera from SARS patients (sera 1a, 1b, 2, 6, 37, 62, London, SARS-yellow, SARS-green); type: binding, human; design: Binding of serum 6 to linear peptides of protein X1 of SARS-CoV Urbani / Binding of serum 37 to linear peptides of protein X1 of SARS-CoV Urbani / Binding of serum 6 to looped/cyclic peptide (PEPSCAN-ELISA) / Binding of serum 37 to looped/cyclic peptide (PEPSCAN-ELISA) / Binding of serum 37 to looped/cyclic peptides of protein X1 of SARS-CoV Urbani / Binding of serum 6 to linear peptides of protein X2 / Binding of serum 37 to linear peptides of protein X2 / Binding of serum 37 to looped/cyclic peptides of protein X2 of SARS-CoV Urbani / Binding of serum 6 to linear peptides of protein M of SARS-CoV Urbani / Binding of serum 37 to linear peptides of protein M of SARS-CoV Urbani / Binding of serum 6 to looped/cyclic peptides of protein M of SARS-CoV Urbani / Binding of serum 37 to looped/cyclic peptides of protein M of SARS-CoV Urbani / Binding of serum 6 to linear peptides of protein X3 of SARS-CoV Urbani / Binding of serum 37 to linear peptides of protein X3 of SARS-CoV Urbani / Binding of serum 37 to looped/cyclic peptides of protein X3 of SARS-CoV Urbani / Binding of serum 6 to linear peptides of protein X4 of SARS-CoV Urbani / Binding of serum 37 to linear peptides of protein X4 of SARS-CoV Urbani / Binding of serum 37 to looped/cyclic peptides of protein X4 of SARS-CoV Urbani / Binding of serum 6 to linear peptides of protein X5 of SARS-CoV Urbani / Binding of serum 37 to linear peptides of protein X5 of SARS-CoV Urbani / Binding of serum 37 to looped/cyclic peptides of protein X5 of SARS-CoV Urbani / Binding of serum 6 to linear peptides of protein N of SARS-CoV Urbani / Binding of serum 37 to linear peptides of protein N of SARS-CoV Urbani / Binding of serum 6 to linear peptide (PEPSCAN-ELISA) / Binding of serum 1a to looped/cyclic peptides of protein N of SARS-CoV Urbani / Binding of serum 1b to looped/cyclic peptides of protein N of SARS-CoV Urbani / Binding of serum 2 to looped/cyclic peptides of protein N of SARS-CoV Urbani / Binding of serum 6 to looped/cyclic peptides of protein N of SARS-CoV Urbani / Binding of serum 37 to looped/cyclic peptides of protein N of SARS-CoV Urbani / Binding of serum 62 to looped/cyclic peptides of protein N of SARS-CoV Urbani / Binding of serum London to looped/cyclic peptides of protein N of SARS-CoV Urbani / Binding of serum SARS-green to looped/cyclic peptides of protein N of SARS-CoV Urbani: unit not given here

YHGAIKLDDKDPQFK
0.3: Control serum LUMC looped peptides [2] | Binding of a rabbit serum to looped/cyclic peptides of protein N of SARS-CoV Urbani (Rabbit serum looped peptides) [3] | Binding of serum 1a to linear peptides of protein N of SARS-CoV Urbani [4] | Binding of serum 2 to linear peptides of protein N of SARS-CoV Urbani [4] | Binding of serum 62 to looped/cyclic peptides of protein N of SARS-CoV Urbani [4] | Binding of serum London to looped/cyclic peptides of protein N of SARS-CoV Urbani [4]
0.9: Control serum Blood-bank linear peptides [2] | Control serum LUMC linear peptides [2] | Binding of serum SARS-green to linear peptides of protein N of SARS-CoV Urbani [4]
0.7: Binding of serum London to linear peptides of protein N of SARS-CoV Urbani [4] | Binding of serum SARS-yellow to linear peptides of protein N of SARS-CoV Urbani [4]
1.6: Binding of serum 62 to linear peptides of protein N of SARS-CoV Urbani [4]
0.8: Binding of serum 37 to linear peptides of protein N of SARS-CoV Urbani [4]
0.1: Binding of antibody 03-018 to linear peptides of the N protein of SARS-CoV Urbani [1] | Binding of serum 1b to looped/cyclic peptides of protein N of SARS-CoV Urbani [4] | Binding of serum 6 to looped/cyclic peptides of protein N of SARS-CoV Urbani [4] | Binding of serum SARS-green to looped/cyclic peptides of protein N of SARS-CoV Urbani [4] | Binding of serum SARS-yellow to looped/cyclic peptides of protein N of SARS-CoV Urbani [4]
0.4: Control Serum Blood-Bank Looped peptides [2] | Binding of serum 37 to looped/cyclic peptides of protein N of SARS-CoV Urbani [4]
0.2: Binding of antibody 03-018 to looped/cyclic peptides of the N protein of SARS-CoV Urbani [1] | Binding of a rabbit serum to linear peptides of protein N of SARS-CoV Urbani (Rabbit serum linear peptides) [3] | Binding of serum 1a to looped/cyclic peptides of protein N of SARS-CoV Urbani [4] | Binding of serum 1b to linear peptides of protein N of SARS-CoV Urbani [4] | Binding of serum 2 to looped/cyclic peptides of protein N of SARS-CoV Urbani [4] | Binding of serum 6 to linear peptides of protein N of SARS-CoV Urbani [4]

YKHWPQIAQFAPSAS
0.7: Control serum LUMC linear peptides [2] | Binding of serum 37 to looped/cyclic peptides of protein N of SARS-CoV Urbani [4] | Binding of serum 62 to linear peptides of protein N of SARS-CoV Urbani [4] | Binding of serum 62 to looped/cyclic peptides of protein N of SARS-CoV Urbani [4] | Binding of serum SARS-yellow to linear peptides of protein N of SARS-CoV Urbani [4]
0.9: Control serum Blood-bank linear peptides [2]
0.3: Binding of serum 1a to linear peptides of protein N of SARS-CoV Urbani [4] | Binding of serum 1b to looped/cyclic peptides of protein N of SARS-CoV Urbani [4] | Binding of serum 6 to looped/cyclic peptides of protein N of SARS-CoV Urbani [4]
0.2: Binding of antibody 03-018 to looped/cyclic peptides of the N protein of SARS-CoV Urbani [1] | Binding of serum 2 to linear peptides of protein N of SARS-CoV Urbani [4] | Binding of serum 6 to linear peptides of protein N of SARS-CoV Urbani [4]
0.5: Binding of a rabbit serum to looped/cyclic peptides of protein N of SARS-CoV Urbani (Rabbit serum looped peptides) [3] | Binding of serum 1a to looped/cyclic peptides of protein N of SARS-CoV Urbani [4] | Binding of serum 2 to looped/cyclic peptides of protein N of SARS-CoV Urbani [4] | Binding of serum London to looped/cyclic peptides of protein N of SARS-CoV Urbani [4]
0.1: Binding of antibody 03-018 to linear peptides of the N protein of SARS-CoV Urbani [1] | Binding of a rabbit serum to linear peptides of protein N of SARS-CoV Urbani (Rabbit serum linear peptides) [3] | Binding of serum 1b to linear peptides of protein N of SARS-CoV Urbani [4]
0.4: Binding of serum SARS-green to linear peptides of protein N of SARS-CoV Urbani [4] | Binding of serum SARS-green to looped/cyclic peptides of protein N of SARS-CoV Urbani [4]
0.6: Binding of serum London to linear peptides of protein N of SARS-CoV Urbani [4] | Binding of serum SARS-yellow to looped/cyclic peptides of protein N of SARS-CoV Urbani [4]
0.8: Control Serum Blood-Bank Looped peptides [2] | Control serum LUMC looped peptides [2] | Binding of serum 37 to linear peptides of protein N of SARS-CoV Urbani [4]

YNVTQAFGRRGPEQT
0.5: Binding of Control Serum Blood-Bank to Looped peptides [2] | Binding of Control serum LUMC to looped peptides [2] | Binding of serum 37 to looped/cyclic peptides of protein N of SARS-CoV Urbani [4] | Binding of serum London to linear peptide (PEPSCAN-ELISA) [4]
0.7: Binding of Control serum Blood-bank to linear peptides [2] | Binding of serum 37 to linear peptide (PEPSCAN-ELISA) [4] | Binding of serum 62 to linear peptide (PEPSCAN-ELISA) [4]
recognized: Recognition of the peptide by the rabbit serum [3]
0.3: Binding of serum 1a to linear peptide (PEPSCAN-ELISA) [4] | Binding of serum 1a to looped/cyclic peptides of protein N of SARS-CoV Urbani [4] | Binding of serum 2 to looped/cyclic peptides of protein N of SARS-CoV Urbani [4] | Binding of serum 62 to looped/cyclic peptides of protein N of SARS-CoV Urbani [4] | Binding of serum London to looped/cyclic peptides of protein N of SARS-CoV Urbani [4] | Binding of serum SARS-yellow to looped/cyclic peptides of protein N of SARS-CoV Urbani [4]
0.2: Binding of antibody 03-018 to looped/cyclic peptides of the N protein of SARS-CoV Urbani [1] | Binding of serum 1b to looped/cyclic peptides of protein N of SARS-CoV Urbani [4] | Binding of serum 2 to linear peptide (PEPSCAN-ELISA) [4] | Binding of serum 6 to linear peptide (PEPSCAN-ELISA) [4] | Binding of serum SARS-green to looped/cyclic peptides of protein N of SARS-CoV Urbani [4]
0.6: Binding of Control serum LUMC to linear peptides [2] | Binding of serum SARS-green to linear peptide (PEPSCAN-ELISA) [4] | Binding of serum SARS-yellow to linear peptide (PEPSCAN-ELISA) [4]
0.1: Binding of antibody 03-018 to linear peptides of the N protein of SARS-CoV Urbani [1] | Binding of serum 1b to linear peptide (PEPSCAN-ELISA) [4] | Binding of serum 6 to looped/cyclic peptides of protein N of SARS-CoV Urbani [4]

YRRATRRVRGGDGKM
0.8: Binding of Control serum Blood-bank to linear peptides [2] | Binding of serum 37 to linear peptides of protein N of SARS-CoV Urbani [4]
0.6: Binding of serum SARS-yellow to linear peptides of protein N of SARS-CoV Urbani [4]
0.2: Binding of antibody 03-018 to looped/cyclic peptides of the N protein of SARS-CoV Urbani [1] | Binding of a rabbit serum to linear peptides of protein N of SARS-CoV Urbani (Rabbit serum linear peptides) [3] | Binding of serum 1a to looped/cyclic peptides of protein N of SARS-CoV Urbani [4] | Binding of serum 2 to looped/cyclic peptides of protein N of SARS-CoV Urbani [4] | Binding of serum SARS-green to looped/cyclic peptides of protein N of SARS-CoV Urbani [4]
0.1: Binding of antibody 03-018 to linear peptides of the N protein of SARS-CoV Urbani [1] | Binding of serum 1b to linear peptides of protein N of SARS-CoV Urbani [4] | Binding of serum 1b to looped/cyclic peptides of protein N of SARS-CoV Urbani [4] | Binding of serum 6 to looped/cyclic peptides of protein N of SARS-CoV Urbani [4] | Binding of serum SARS-yellow to looped/cyclic peptides of protein N of SARS-CoV Urbani [4]
0.5: Binding of serum London to linear peptides of protein N of SARS-CoV Urbani [4]
0.7: Binding of Control serum LUMC to linear peptides [2] | Binding of serum 62 to linear peptides of protein N of SARS-CoV Urbani [4]
0.3: Binding of Control serum LUMC to looped peptides [2] | Binding of serum 1a to linear peptides of protein N of SARS-CoV Urbani [4] | Binding of serum 2 to linear peptides of protein N of SARS-CoV Urbani [4] | Binding of serum 6 to linear peptides of protein N of SARS-CoV Urbani [4] | Binding of serum 62 to looped/cyclic peptides of protein N of SARS-CoV Urbani [4] | Binding of serum London to looped/cyclic peptides of protein N of SARS-CoV Urbani [4]
0.4: Binding of Control Serum Blood-Bank to Looped peptides [2] | Binding of serum 37 to looped/cyclic peptides of protein N of SARS-CoV Urbani [4] | Binding of serum SARS-green to linear peptides of protein N of SARS-CoV Urbani [4]
0.0: Binding of a rabbit serum to looped/cyclic peptides of protein N of SARS-CoV Urbani (Rabbit serum looped peptides) [3]
